US20110281802A1, “COMPOSITION FOR TREATMENT AND PREVENTION OF HAIR LOSS AND PREMATURE GRAYING OF HAIR” (Immudiagnostik AG, priority 2007, published 2011)

Legend:
[1] = tested on: human anagen hair follicles; experiment: Ki67/TUNEL staining, percentage of proliferating cells, assay #3; assay type: cell-based; settings: after 9 days of culture, Anagen only
Procedure: Assay #3 Culture HF 446: Eight hair follicle cultures (3 follicles/well) were treated with various concentration of test substance as described for 2 days, followed by snap freezing and sectioning of two wells. Six wells were treated up to 9 days, then snap frozen and sectioned. The distribution of test substances and concentrations were as indicted in FIG. 3. The parameter measured after two days was proliferation/apoptosis, and the parameters measured after 9 days were elongation, proportion of cells in proliferation/apoptosis, and hair cycle stage
After nine days, Ki67/TUNEL staining was performed and photos taken.
Proliferating and resting cells as well as cells undergoing apoptosis were counted separately proximal Auber's line. Results are expressed as percentages. For Ki-67/TUNEL staining, fixed sections were incubated for 60 minutes in a solution comprising 30% TdT-enzyme (Chemicon International, Inc., Temecula, Calif., USA; CatNo S1707). 2 mL stop buffer (Chemicon International, Inc.; CatNo S7110), diluted in 68 mL distilled water, was added for 10 minutes to stop the reaction. This was followed by a pre-incubation for 20 minutes with 10% goat serum (Dako Cytomation, CatNo 50114121) and incubation with mouse-anti human Ki-67 antigen (Chemicon International, Inc., CatNo S7110) 1:20 in PBS with 2% goat serum. The fixed section was then washed in PBS, treated with anti-digoxigenin antibody (Chemicon International, Inc., CatNo S7110) (59DI Antibody solution and 5601 Stop solution, 30 minutes) and goat anti-mouse-IgG-rhodamine red (Jackson Immuno Research, Suffolk, UK; CatNo 115-295-062), 1:200 in PBS with 2% goat serum. After washes with PBS, counterstaining with DAPI™ ([…]) (Roche, Basel, Switzerland; CatNo 236276) and further washes with PBS and mounting using Fluoromount (Southern Biotech, Birmingham, Ala., USA; CatNo 0100-01).
After nine days, Ki67/TUNEL staining was performed and photos were taken. In anagen hair follicles, proliferating cells and cells undergoing apoptosis were counted separately proximal Auber's line. Results are expressed as percentages. […] The results are summarized in Table 6 and FIG. 9 showing the mean percentage of Ki6 7 positive cells with SEM

Prolactin = experiment: Immunohistochemical staining of treated hair follicles for prolactin (assay #6); assay type: cell-based, human; settings: 10 pg/mL and 100 pg/mL, few hair follicles, very preliminary
Procedure: The staining was performed according to the following protocol:
A. Prolactin: Pre-treatment with 0.5% Triton X (Fluka, Sigma Aldrich, Taufkirchen, Germany; CatNo 93420) in TBS for 10 minutes at room temperature, three washings in TBS for five minutes each, treatment with 0.6% H2O2 in methanol three times for 15 minutes, washes in TBS. Pre-incubation with 10% rabbit serum (Dako Cytomation, CatNo X0902) in TBS with 3% BSA for 20 minutes, incubation with primary antibody (goat anti-human prolactin, Santa Cruz Biotechnology, Inc., Santa Cruz, Calif., USA; CatNo SC-7805), dilution 1:100 in TBS+2% rabbit serum (Dako Cytomation, CatNo X0902) overnight at 4° C. Thereafter washes in TBS. Incubation with secondary antibody (rabbit anti-goat-biotinylated, DAKO Cytomation, CatNo E0466) diluted to 1:200 with 2% rabbit serum in TBS for 45 minutes at room temperature. Treatment with Avidin Biotin Complex-alkaline phosphatase (Vector Laboratories, Burlingame, Calif., USA; CatNo AK-5000) for 30 minutes, then washing in TBS. Thereafter treatment with Fast Red Tablets (Sigma-Aldrich, CatNo F4648-50SET) for 6 minutes. Counterstaining with Mayer's Haemalaun (Chroma Muenster, CatNo 2E038) and mounting with Aquamount (DAKO Cytomation, CatNo S3025).
In both assays human pituitary gland was set as positive control and negative control were hair follicles treated without the primary antibody.

TSH = experiment: Immunohistochemical staining of treated hair follicles for TSH (assay #6); assay type: cell-based, human; settings: few slides only
Procedure: Assay #6—Stimulation of expression of pituitary hormones by Thymulin (PRL+TSH): Hair follicles from the occipital area of a person were cultured for 9 days and treated with culture medium and thymulin 10 pg/mL (human thymulin, No A9530AG.1; Immundiagnostik AG, Bensheim, Germany) as described above, then snap frozen and sectioned. The staining was performed according to the following protocol:
B. TSH: Pre-incubation with 10% goat serum (Dako Cytomation, CatNo 50114121) in TBS for 20 minutes, then incubation with primary antibody (mouse anti-human TSH, Dianova, Hamburg, Germany, CatNo DLN 07830), dilution 1:20 in TBS+2% goat serum (Dako Cytomation, CatNo 50114121) overnight at 4° C. Thereafter washing in TBS. Incubation with secondary antibody (goat anti-mouse-biotinylated, Beckman Coulter, Inc. Fullerton, Calif., USA, CatNo IM0816) diluted to 1:200 with 2% goat serum in TBS for 45 minutes at room temperature. Treatment with avidin/biotin-complex coupled with alkaline phosphatase (Vector Laboratories, Burlingame, Calif., USA; CatNo AK-5000) for 30 minutes, then washes in TBS. Thereafter treatment with Fast Red Tablets (Sigma-Aldrich, CatNo F4648-50SET) for 6 minutes. Counterstaining with Mayer's Haemalaun (Chroma Muenster, CatNo 2E038) and mounting with Aquamount (DAKO Cytomation, CatNo S3025). […]

With thymulin the “Mean percentage of Ki67-positive cells” value ([1]; 10 pg/mL) was 31.58 percentage, the “Mean percentage of Ki67-positive cells” value ([1]; 100 pg/mL) was 35.75 percentage and the “Immunoreactivity for Prolactin in treated hair follicles (in words)” value (Prolactin) was “some additional staining in the IRS”. For the same substance, the “Immunoreactivity for TSH, treated versus control hair follicles (in words)” value (TSH) was “Did not Show any Differences”.
With Thymosin beta-4 [TB4] the “Mean percentage of Ki67-positive cells” value ([1]; 100 ng/mL) was 39.30 percentage and the “Mean percentage of Ki67-positive cells” value ([1]; 1000 ng/mL) was 33.14 percentage.
